Entries after “also recorded” stand apart in the source; their conditions may differ.
What was measured:
[1] = system: yeast [PSI^+] prion; format: cell-based
[2] = system: yeast [PSI^+] prion; conditions: cited from earlier work
[3] = system: [URE3] prion; format: cell-based

SMILES | activity against yeast [PSI+] prion (halo of red colonies) [1] | activity in the yeast-based method (earlier study) [2] | other results
N=C(N)N/N=C/c1c(Cl)ccc(Cl)c1Cl [PSI210] | strongest activity; also recorded: more potent than Guanabenz itself |  | 
CCN(CC)CCCC(C)Nc1c2ccc(Cl)cc2nc2ccc(OC)cc12 (stereo not drawn) [quinacrine] |  | active | 
CN(C)CCCN1c2ccccc2Sc2ccc(Cl)cc21 [chlorpromazine] |  | active | 
CC(=O)O.N=C(N)N/N=C/c1c(Cl)cccc1Cl [Guanabenz acetate] | strongly active; also recorded: very active |  | activity against [URE3] prion [3]: also active; also recorded: also very active
Clc1cccc(Cl)c1N=C1NCCN1 [Clonidine] |  |  | anti-prion activity (data not shown) [1]: did not exhibit any anti-prion activity
